Test results: patent publication US9062013B2, “Positive allosteric modulators of the α7 nicotinic acetylcholine receptor and uses thereof” (Bionomics Limited, priority 2011, dated 2015)

tested on: scopolamine treated mice; experiment: T-maze Continuous Alternation Task (T-CAT), scopolamine-induced cognitive impairment; format: in vivo; details: test compounds administered 60 min prior, scopolamine 20 min prior to the T-maze session
Description: Scopolamine is a muscarinic receptor antagonist which is used as a standard/reference drug for inducing cognitive deficits in healthy humans and animals.
The T-maze Continuous Alternation Task (T-CAT) measures spontaneous alternation, which is the innate tendency of mice to alternate free choices in a T-maze over a series of successive runs. This sequential procedure relies on working memory and is sensitive to various pharmacological manipulations affecting memory processes.
The T-maze apparatus is made of gray Plexiglas with a main stem (55 cm long×10 cm wide×25 cm high) and two arms (30 cm long×10 cm wide×25 cm high) positioned at 90 degree angle relative to the main stem. A start box (15 cm long×10 cm wide) is separated from the main stem by a sliding door. Sliding doors are also provided to close specific arms during the forced-choice alternation task.
The experimental protocol consists of one single session, which starts with 1 “forced-choice” trial, followed by 14 “free-choice” trials. In the first “forced-choice” trial, the animal is confined for 5 s in the start arm and then it is released while either the left or right goal arm is blocked by a sliding door. The animal will negotiate the maze, eventually enter the open goal arm, and return to the start position. Immediately after the return to the start position, the left or right goal door is opened and the animal is allowed to choose freely between the left and right goal arm (“free choice” trials). The animal is considered to have entered an arm when it places its four paws in the arm. A session is terminated and the animal is removed from the maze as soon as 14 free-choice trials have been performed or 10 min have elapsed, whichever event occurs first. The percentage of alternation over the 14 free-choice trials is determined for each mouse and is used as an index of working memory performance. This percentage is defined as entry in a different arm of the T-maze over successive visits (i.e., left-right-left-right, etc). Scopolamine administered 20 min prior the initiation of the 1-maze session is used to induce disruption in the spontaneous alternation of mice. Test compounds are administered 60 min prior the start of the T-maze session in order to evaluate their ability to reverse the scopolamine effect.
The apparatus is cleaned between each animal using alcohol (70°). Urine and feces are removed from the maze. During the trials, animal handling and the visibility of the operator are minimized as much as possible.

Compound | improvement relative to the scopolamine treated mice (spontaneous alternation)
CC1(C)[C@H](C(=O)Nc2cc(C(F)(F)F)n[nH]2)[C@H]1c1ccc(S(N)(=O)=O)cc1 (relative stereo) [Example 2b, 2,2-Dimethyl-trans-3-(4-sulfamoylphenyl)-N-(3-(trifluoromethyl)-1H-pyrazol-5-yl)cyclopropanecarboxamide] | significant improvement
COc1ccc(Cl)cc1NC(=O)[C@@H]1[C@@H](c2ccc(S(N)(=O)=O)cc2)C1(C)C (relative stereo) [Example 4b, trans-N-(5-Chloro-2-methoxyphenyl)-2,2-dimethyl-3-(4-sulfamoylphenyl)cyclopropanecarboxamide] | significant improvement
COc1ccc(Cl)cc1NC(=O)[C@@H]1[C@@H](c2ccc(Cl)cc2)C1(C)C (relative stereo) [Example 5a, trans-N-(5-Chloro-2-methoxyphenyl)-3-(4-chlorophenyl)-2,2-dimethylcyclopropanecarboxamide] | significant improvement
COc1ccc(Cl)cc1NC(=O)[C@@H]1[C@@H](c2ccc(S(N)(=O)=O)cc2)C12CCCC2 (relative stereo) [Example 6b, trans-N-(5-Chloro-2-methoxyphenyl)-2-(4-sulfamoylphenyl)spiro[2.4]heptane-1-carboxamide] | significant improvement
NS(=O)(=O)c1ccc([C@@H]2[C@@H](C(=O)Nc3ccc(C(F)(F)F)cc3)C23CCCC3)cc1 (relative stereo) [Example 9b, trans-2-(4-sulfamoylphenyl)-N-(4-(trifluoromethyl)phenyl)spiro[2.4]heptane-1-carboxamide] | significant improvement
CC1(C)[C@H](C(=O)Nc2ccncc2)[C@H]1c1ccc(S(N)(=O)=O)cc1 (relative stereo) [Example 10b, 2,2-Dimethyl-trans-N-(pyridin-4-yl)-3-(4-sulfamoylphenyl)cyclopropanecarboxamide] | significant improvement

tested on: not given; experiment: not given; details: not given

Compound | melting point [°C]
Cc1cnc(NC(=O)[C@@H]2[C@@H](c3ccccc3)C2(C)C)s1 (relative stereo) [Example 1a, 2,2-Dimethyl-trans-N-(5-methylthiazol-2-yl)-3-phenylcyclopropanecarboxamide] | 132 to 135
CC1(C)[C@H](C(=O)Nc2cc(C(F)(F)F)n[nH]2)[C@H]1c1ccccc1 (relative stereo) [Example 2a, 2,2-Dimethyl-trans-3-phenyl-N-(3-(trifluoromethyl)-1H-pyrazol-5-yl)cyclopropanecarboxamide] | 68 to 71
COc1cc(OC)c(NC(=O)[C@@H]2[C@@H](c3ccccc3)C2(C)C)cc1Cl (relative stereo) [Example 3a, trans-N-(5-Chloro-2,4-dimethoxyphenyl)-2,2-dimethyl-3-phenylcyclopropanecarboxamide] | 160 to 162
COc1ccc(Cl)cc1NC(=O)[C@@H]1[C@@H](c2ccccc2)C1(C)C (relative stereo) [Example 4a, trans-N-(5-Chloro-2-methoxyphenyl)-2,2-dimethyl-3-phenylcyclopropanecarboxamide] | 155 to 157
COc1ccc(Cl)cc1NC(=O)[C@@H]1[C@@H](c2ccc(Cl)cc2)C1(C)C (relative stereo) [Example 5a, trans-N-(5-Chloro-2-methoxyphenyl)-3-(4-chlorophenyl)-2,2-dimethylcyclopropanecarboxamide] | 162 to 164
COc1ccc(Cl)cc1NC(=O)[C@@H]1[C@@H](c2ccccc2)C12CCCC2 [Example 6a, trans-N-(5-Chloro-2-methoxyphenyl)-2-phenylspirol[2.4]heptane-1-carboxamide] | 133 to 135

More lines, now with the values ahead:

melting point [°C] | Compound
131 to 133 | COc1ccc(NC(=O)[C@@H]2[C@@H](c3ccccc3)C23CCCC3)c(OC)n1 (relative stereo) [Example 8a, trans-N-(2,6-dimethoxypyridin-3-yl)-2-phenylspiro[2.4]heptane-1-carboxamide]
171 to 173 | O=C(Nc1ccc(C(F)(F)F)cc1)[C@@H]1[C@@H](c2ccccc2)C12CCCC2 (relative stereo) [Example 9a, trans-2-phenyl-N-(4-(trifluoromethyl)phenyl)spiro[2.4]heptane-1-carboxamide]
170 to 172 | COc1ccc(Cl)cc1NC(=O)[C@@H]1[C@@H](c2ccc(Br)cc2)C1(C)C (relative stereo) [Example 12c, trans-N-(5-Chloro-2-methoxyphenyl)-3-(4-bromophenyl)-2,2-dimethylcyclopropanecarboxamide]
152 to 154 | COc1ncccc1NC(=O)[C@@H]1[C@@H](c2ccccc2)C1(C)C (relative stereo) [Example 13a, trans-N-(2-methoxypyridin-3-yl)-2,2-dimethyl-3-phenylcyclopropanecarboxamide]
131 to 133 | O=C(Nc1ccc(C(F)(F)F)cc1Cl)[C@@H]1[C@@H](c2ccccc2)C12CCCC2 (relative stereo) [Example 15a, trans-2-phenyl-N-[2-chloro-4-(trifluoromethyl)phenyl]spiro[2.4]heptane-1-carboxamide]
110 to 113 | Cc1cccc([C@@H]2[C@@H](C(=O)Nc3ccc(F)c(F)c3)C2(C)C)c1 (relative stereo) [Example 16d, trans-N-(3,4-Difluoro-phenyl)-2,2-dimethyl-3-m-tolyl-cyclopropanecarboxamide]
148 to 150 | COc1ccc(Cl)cc1NC(=O)[C@@H]1[C@@H](c2cccc(C)c2)C1(C)C (relative stereo) [Example 17a, trans-N-(5-Chloro-2-methoxyphenyl)-2,2-dimethyl-3-m-tolyl-cyclopropanecarboxamide]
120 to 122 | COc1ccc(Cl)cc1NC(=O)[C@@H]1[C@@H](c2ccc3c(c2)OC(F)(F)O3)C1(C)C (relative stereo) [Example 18d, trans-N-(5-Chloro-2-methoxyphenyl)-3-(2,2-difluoro-benzo[1,3]dioxol-5-yl)-2,2-dimethyl-cyclopropane carboxamide]
